In patent publication US20050096254A1, “Peptide deformylase activated prodrugs” (priority 2002, published 2005):
Values after ≈ are worked out from the molar mass of the structure shown.

How the values were obtained:
Format in all cases: cell-based
[1] = tested on: E. aerogenes; experiment: MIC susceptibility testing (modified NCCLS)
Description: (§1) The NCCLS (National Committee for Clinical Laboratory Standards), method to determine MIC's of antimicrobial compounds is modified for high-throughput screening. All stocks of tested compounds are prepared in either water or in DMSO depending on solubility. At the highest concentration, DMSO content should not exceed 0.5%. Briefly, twenty 2-fold serial dilutions of test compounds from the highest concentration is made in a 384-well microtiter plate. Each well is inoculated with testing bacteria in broth to a final concentration of approximately 1-1.5×10^6 cells/ml. Bacterial growth is determined by the increase of optical density at 600 nm using a microplate reader (Tecan SpectraFluor Plus).

[2] = tested on: E. cloacae; experiment: MIC susceptibility testing (modified NCCLS)
Description: as §1

[3] = tested on: E. coli; experiment: MIC susceptibility testing (modified NCCLS); settings: Table 4, E. coli
Description: as §1

[4] = tested on: E. faecalis; experiment: MIC susceptibility testing (modified NCCLS)
Description: as §1

[5] = tested on: H. influenzae; experiment: MIC susceptibility testing (modified NCCLS)
Description: as §1

[6] = tested on: K. pneumoniae; experiment: MIC susceptibility testing (modified NCCLS)
Description: as §1

[7] = tested on: M. catarrhalis; experiment: MIC susceptibility testing (modified NCCLS)
Description: as §1

[8] = tested on: S. aureus; experiment: MIC susceptibility testing (modified NCCLS)
Description: as §1

[9] = tested on: S. epidermidis; experiment: MIC susceptibility testing (modified NCCLS)
Description: as §1

[10] = tested on: P. aeruginosa; experiment: MIC susceptibility testing (modified NCCLS)
Description: as §1, with “Each well is inoculated with testing bacteria in broth to a final concentration of approximately 1-1.5×10^6 cells/ml.” left out

[11] = tested on: Mammalian cells; experiment: Toxicity to mammalian cells; settings: after 16 hours of exposure
Description: Mammalian cells were treated with Compound #2 as described above.

## CSCC[C@H](NC=O)C(=O)N[C@@H](CC(C)C)C(=O)Oc1cc(Cl)ccc1Oc1ccc(Cl)cc1Cl [Compound #2]
[1]; Table 3, E. aerogenes ATCC 13048, Exp. #1
  MIC: 1 µg/mL (≈ 1.78 µM)
[1]; Table 3, E. aerogenes ATCC 13048, Exp. #2
  MIC: 1 µg/mL (≈ 1.78 µM)
[1]; Table 3, E. aerogenes ATCC 29009, Exp. #1
  MIC: 0.25 µg/mL (≈ 0.445 µM)
[1]; Table 3, E. aerogenes ATCC 29009, Exp. #2
  MIC: ≦0.125 μg/ml
[1]; Table 3, E. aerogenes ATCC 29751, Exp. #1
  MIC: 2 µg/mL (≈ 3.56 µM)
[1]; Table 3, E. aerogenes ATCC 29751, Exp. #2
  MIC: 1 µg/mL (≈ 1.78 µM)
[1]; Table 3, E. aerogenes ATCC 35028, Exp. #1
  MIC: 4 µg/mL (≈ 7.12 µM)
[1]; Table 3, E. aerogenes ATCC 35028, Exp. #2
  MIC: 2 µg/mL (≈ 3.56 µM)
[1]; Table 4, E. aerogenes ATCC 35028, Exp. #1
  MIC: 32 µg/mL (≈ 56.9 µM)
[1]; Table 4, E. aerogenes ATCC 35028, Exp. #2
  MIC: 16 µg/mL (≈ 28.5 µM)
[2]; Table 3, E. cloacae ATCC 23355, Exp. #1
  MIC: 0.5 µg/mL (≈ 0.89 µM)
[2]; Table 3, E. cloacae ATCC 23355, Exp. #2
  MIC: 0.5 µg/mL (≈ 0.89 µM)
[2]; Table 4, E. cloacae ATCC 23355, Exp. #1
  MIC: 16 µg/mL (≈ 28.5 µM)
[2]; Table 4, E. cloacae ATCC 23355, Exp. #2
  MIC: 1 µg/mL (≈ 1.78 µM)
[3]; Exp. #1
  MIC: 16 µg/mL (≈ 28.5 µM)
[3]; Exp. #2
  MIC: 16 µg/mL (≈ 28.5 µM)
[4]; Table 4, E. faecalis ATCC 49757, Exp. #1
  MIC: 64 µg/mL (≈ 114 µM)
[4]; Table 4, E. faecalis ATCC 49757, Exp. #2
  MIC: 32 µg/mL (≈ 56.9 µM)
[4]; Table 4, E. faecalis ATCC 700802, Exp. #1
  MIC: 32 µg/mL (≈ 56.9 µM)
[4]; Table 4, E. faecalis ATCC 700802, Exp. #2
  MIC: 32 µg/mL (≈ 56.9 µM)
[5]; Table 4, H. influenzae ATCC 33533, Exp. #1
  MIC: 64 µg/mL (≈ 114 µM)
[5]; Table 4, H. influenzae ATCC 33533, Exp. #2
  MIC: ≧64 μg/ml
[6]; Table 3, K. pneumoniae ATCC 51503, Exp. #1
  MIC: 8 µg/mL (≈ 14.2 µM)
[6]; Table 3, K. pneumoniae ATCC 51503, Exp. #2
  MIC: 8 µg/mL (≈ 14.2 µM)
[6]; Table 3, K. pneumoniae ATCC 51504, Exp. #1
  MIC: 1 µg/mL (≈ 1.78 µM)
[6]; Table 3, K. pneumoniae ATCC 51504, Exp. #2
  MIC: 2 µg/mL (≈ 3.56 µM)
[6]; Table 3, K. pneumoniae ATCC 700721, Exp. #1
  MIC: 2 µg/mL (≈ 3.56 µM)
[6]; Table 3, K. pneumoniae ATCC 700721, Exp. #2
  MIC: 2 µg/mL (≈ 3.56 µM)
[6]; Table 4, K. pneumoniae ATCC 51503, Exp. #1
  MIC: 4 µg/mL (≈ 7.12 µM)
[6]; Table 4, K. pneumoniae ATCC 51503, Exp. #2
  MIC: 8 µg/mL (≈ 14.2 µM)
[6]; Table 4, K. pneumoniae ATCC 700721, Exp. #1
  MIC: 4 µg/mL (≈ 7.12 µM)
[6]; Table 4, K. pneumoniae ATCC 700721, Exp. #2
  MIC: 8 µg/mL (≈ 14.2 µM)
[7]; Table 3, M. catarrhalis ATCC 43627, Exp. #1
  MIC: ≦0.125 μg/ml
[7]; Table 3, M. catarrhalis ATCC 43627, Exp. #2
  MIC: ≦0.125 μg/ml
[7]; Table 3, M. catarrhalis ATCC 43628, Exp. #1
  MIC: ≦0.125 μg/ml
[7]; Table 3, M. catarrhalis ATCC 43628, Exp. #2
  MIC: ≦0.125 μg/ml
[7]; Table 3, M. catarrhalis ATCC 49265, Exp. #1
  MIC: ≦0.125 μg/ml
[7]; Table 3, M. catarrhalis ATCC 49265, Exp. #2
  MIC: ≦0.125 μg/ml
[7]; Table 3, M. catarrhalis ATCC 51584, Exp. #1
  MIC: ≦0.125 μg/ml
[7]; Table 3, M. catarrhalis ATCC 51584, Exp. #2
  MIC: ≦0.125 μg/ml
[8]; Table 3, S. aureus ATCC 11632, Exp. #1
  MIC: ≦0.125 μg/ml
[8]; Table 3, S. aureus ATCC 11632, Exp. #2
  MIC: ≦0.125 μg/ml
[8]; Table 3, S. aureus ATCC 13301, Exp. #1
  MIC: ≦0.125 μg/ml
[8]; Table 3, S. aureus ATCC 13301, Exp. #2
  MIC: ≦0.125 μg/ml
[8]; Table 3, S. aureus ATCC 14154, Exp. #1
  MIC: ≦0.125 μg/ml
[8]; Table 3, S. aureus ATCC 14154, Exp. #2
  MIC: ≦0.125 μg/ml
[8]; Table 3, S. aureus ATCC 33591, Exp. #1
  MIC: ≦0.125 μg/ml
[8]; Table 3, S. aureus ATCC 33591, Exp. #2
  MIC: ≦0.125 μg/ml
[8]; Table 3, S. aureus ATCC 33592, Exp. #1
  MIC: ≦0.125 μg/ml
[8]; Table 3, S. aureus ATCC 33592, Exp. #2
  MIC: ≦0.125 μg/ml
[8]; Table 3, S. aureus ATCC 33593, Exp. #1
  MIC: ≦0.125 μg/ml
[8]; Table 3, S. aureus ATCC 33593, Exp. #2
  MIC: ≦0.125 μg/ml
[8]; Table 3, S. aureus ATCC 43300, Exp. #1
  MIC: ≦0.125 μg/ml
[8]; Table 3, S. aureus ATCC 43300, Exp. #2
  MIC: ≦0.125 μg/ml
[8]; Table 3, S. aureus ATCC 700260, Exp. #1
  MIC: ≦0.125 μg/ml
[8]; Table 3, S. aureus ATCC 700260, Exp. #2
  MIC: ≦0.125 μg/ml
[8]; Table 3, S. aureus ATCC 700698, Exp. #1
  MIC: ≦0.125 μg/ml
[8]; Table 3, S. aureus ATCC 700698, Exp. #2
  MIC: ≦0.125 μg/ml
[8]; Table 3, S. aureus ATCC 700699, Exp. #1
  MIC: 16000 ng/mL (≈ 28.5 µM)
[8]; Table 3, S. aureus ATCC 700699, Exp. #2
  MIC: 8000 ng/mL (≈ 14.2 µM)
[8]; Table 3, S. aureus ATCC 700787, Exp. #1
  MIC: ≦0.125 μg/ml
[8]; Table 3, S. aureus ATCC 700787, Exp. #2
  MIC: ≦0.125 μg/ml
[8]; Table 3, S. aureus ATCC 700788, Exp. #1
  MIC: ≦0.125 μg/ml
[8]; Table 3, S. aureus ATCC 700788, Exp. #2
  MIC: ≦0.125 μg/ml
[8]; Table 3, S. aureus ATCC 700789, Exp. #1
  MIC: ≦0.125 μg/ml
[8]; Table 3, S. aureus ATCC 700789, Exp. #2
  MIC: ≦0.125 μg/ml
[8]; Table 4, MRSA ATCC 700699, Exp. #1
  MIC: 32000 ng/mL (≈ 56.9 µM)
[8]; Table 4, MRSA ATCC 700699, Exp. #2
  MIC: 32000 ng/mL (≈ 56.9 µM)
[8]; Table 4, MSSA ATCC 11632, Exp. #1
  MIC: 32000 ng/mL (≈ 56.9 µM)
[8]; Table 4, MSSA ATCC 11632, Exp. #2
  MIC: 16000 ng/mL (≈ 28.5 µM)
[8]; Table 4, MSSA ATCC 33594, Exp. #1
  MIC: ≦0.125 μg/ml
[8]; Table 4, MSSA ATCC 33594, Exp. #2
  MIC: ≦0.125 μg/ml
[8]; Table 4, MSSA ATCC 700260, Exp. #1
  MIC: ≦0.125 μg/ml
[8]; Table 4, MSSA ATCC 700260, Exp. #2
  MIC: 4000 ng/mL (≈ 7.12 µM)
[8]; Table 5, MSSA ATCC 11632
  MIC: 0.977 ng/mL (≈ 0.00174 µM)
[8]; Table 5, MSSA ATCC 13301
  MIC: 0.015 ng/mL (≈ 2.67e-05 µM)
[8]; Table 5, MSSA ATCC 14154
  MIC: 0.977 ng/mL (≈ 0.00174 µM)
[8]; Table 5, MSSA ATCC 33591
  MIC: 15.63 ng/mL (≈ 0.0278 µM)
[8]; Table 5, MSSA ATCC 33592
  MIC: 0.488 ng/mL (≈ 0.000868 µM)
[8]; Table 5, MSSA ATCC 33593
  MIC: 0.488 ng/mL (≈ 0.000868 µM)
[8]; Table 5, MSSA ATCC 43300
  MIC: 0.977 ng/mL (≈ 0.00174 µM)
[8]; Table 5, MSSA ATCC 700260
  MIC: 0.031 ng/mL (≈ 5.52e-05 µM)
[8]; Table 5, MSSA ATCC 700698
  MIC: 3.906 ng/mL (≈ 0.00695 µM)
[8]; Table 5, MSSA ATCC 700699
  MIC: ≧4 μg/ml
[8]; Table 5, MSSA ATCC 700787
  MIC: 7.813 ng/mL (≈ 0.0139 µM)
[8]; Table 5, MSSA ATCC 700788
  MIC: 62.5 ng/mL (≈ 0.111 µM)
[8]; Table 5, MSSA ATCC 700789
  MIC: 15.63 ng/mL (≈ 0.0278 µM)
[9]; Table 3, S. epidermidis ATCC 27626, Exp. #1
  MIC: ≦0.125 μg/ml
[9]; Table 3, S. epidermidis ATCC 27626, Exp. #2
  MIC: ≦0.125 μg/ml
[9]; Table 3, S. epidermidis ATCC 700565, Exp. #1
  MIC: 2 µg/mL (≈ 3.56 µM)
[9]; Table 3, S. epidermidis ATCC 700565, Exp. #2
  MIC: 2 µg/mL (≈ 3.56 µM)
[9]; Table 3, S. epidermidis ATCC 700566, Exp. #1
  MIC: ≦0.125 μg/ml
[9]; Table 3, S. epidermidis ATCC 700566, Exp. #2
  MIC: ≦0.125 μg/ml
[9]; Table 3, S. epidermidis ATCC 700578, Exp. #1
  MIC: 0.5 µg/mL (≈ 0.89 µM)
[9]; Table 3, S. epidermidis ATCC 700578, Exp. #2
  MIC: 0.25 µg/mL (≈ 0.445 µM)
[9]; Table 3, S. epidermidis ATCC 700583, Exp. #1
  MIC: ≦0.125 μg/ml
[9]; Table 3, S. epidermidis ATCC 700583, Exp. #2
  MIC: ≦0.125 μg/ml
[10]; Table 4, P. aeruginosa ATCC 21726, Exp. #1
  MIC: >64 µg/mL
[10]; Table 4, P. aeruginosa ATCC 21726, Exp. #2
  MIC: ≧64 μg/ml
[10]; Table 4, P. aeruginosa ATCC 29872, Exp. #1
  MIC: >64 µg/mL
[10]; Table 4, P. aeruginosa ATCC 29872, Exp. #2
  MIC: ≧64 μg/ml
[11]
  IC50: ~30 µM
